Entries after “also recorded” stand apart in the source; their conditions may differ.
How the values were obtained:
StITPK1 [1] = target: T1, StITPK1 (Solanum tuberosum, UniProt A4H2J0); test: Kinase assay with ATP, HPLC of products; format: biochemical; conditions: for Product formation (3h) / Product formation (12h): 1 mM substrate, 25°C; for kinase substrate status: with ATP, HPLC
Method: (§1) Kinase assays were performed with ATP-regeneration as described for ATP-grasp kinases ITPK1/2 and VIH1/2 [2-3, 27-29], here in 20 mM HEPES pH 6.5, 1 mM MgCl2, 0.5 mM ATP and 1 mM inositol phosphate substrate. The low rate constants for phospho-kinase activity and the low sensitivity of NMR, PAGE and HPLC […]
[2-3, 27-29], here with or without 4 µM protein for 3h or 12h at 25 °C. Competition/inhibition assays were […]
InsP6, and competitor, typically 0.5 mM, incubated with or without 3 µM protein for 2 h at 25 °C . […]
(§2) 0.5 mM inositol pyrophosphate substrate incubated with 4 µM protein at 25 °C . HPLC analysis and detection of inositol phosphates by complexation with ferric ion was performed as described. Peak area data were analysed with the chromatography Jasco ChromNav v.2 software and x,y data were imported into GraphPad Prism v.6 software (GraphPad Software Inc., San Diego, USA) for plotting of chromatograms without additional processing of the data. […]

StITPK1 [2] = target: T1, StITPK1; test: Competition/inhibition of Ins(1,2,3,4,5)P5 5-phospho-kinase activity, HPLC; format: biochemical; conditions: for % inhibition at 3h, Ins(1,2,3,4,5)P5 substrate: 0.5 mM competing substrate/inhibitor, 1 mM Ins(1,2,3,4,5)P5, 3h experiment; for inhibition of Ins(1,2,3,4,5)P5 phospho-kinase activity: 0.5 mM competitor
AtITPK1 = target: T2, AtITPK1; test: Kinase assay with ATP, HPLC of products; format: biochemical, Arabidopsis thaliana; conditions: with ATP, HPLC
T2 construct: made in house
Method: as §1
(§3) [2-3, 27-29], here with or without 4 µM protein for 3h or 12h at 25 °C. […]
as §2

StITPK1 [3] = target: T1, StITPK1; test: Reverse (phosphotransfer to ADP) assay, HPLC; format: biochemical; conditions: 0.5 mM ADP, 12h
Method: The low rate constants for phospho-kinase activity and the low sensitivity of NMR, PAGE and HPLC […]
as §3
as §2, with “(phosphotransfer to ADP) assays were performed with 20 mM HEPES pH 6.5, 1 mM MgCl2, 0.5mM ADP and 0.5” for “0.5”

T1 sequence (A4H2J0 entry or part of it): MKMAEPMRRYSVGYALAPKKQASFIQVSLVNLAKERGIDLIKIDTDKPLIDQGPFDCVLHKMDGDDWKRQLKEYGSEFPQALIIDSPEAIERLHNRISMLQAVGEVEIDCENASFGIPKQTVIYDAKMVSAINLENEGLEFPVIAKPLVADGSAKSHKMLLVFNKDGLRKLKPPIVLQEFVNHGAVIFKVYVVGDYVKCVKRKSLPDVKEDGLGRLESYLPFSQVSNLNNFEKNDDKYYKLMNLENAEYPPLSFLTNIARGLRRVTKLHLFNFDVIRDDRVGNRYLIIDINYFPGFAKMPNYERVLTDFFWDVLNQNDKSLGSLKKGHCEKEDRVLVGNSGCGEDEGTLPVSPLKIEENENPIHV

| SMILES | Product formation (3h) (StITPK1 [1]) [μM/μM protein] | Product formation (12h) (StITPK1 [1]) [μM/μM protein] | kinase substrate status (StITPK1 [1]) | % inhibition at 3h, Ins(1,2,3,4,5)P5 substrate (StITPK1 [2]) [%] | kinase substrate status (AtITPK1) | inhibition of Ins(1,2,3,4,5)P5 phospho-kinase activity (StITPK1 [2]) | substrate for phosphotransfer to ADP (StITPK1 [3]) |
| --- | --- | --- | --- | --- | --- | --- | --- |
| O=P(O)(O)OC1[C@@H](OP(=O)(O)O)[C@H](OP(=O)(O)O)C(OP(=O)(O)OP(=O)(O)O)[C@@H](OP(=O)(O)O)[C@H]1OP(=O)(O)O (stereo partly shown) [3-PP-InsP5, 1D-3-diphospho-myo-inositol 1,2,4,5,6-pentakisphosphate] | 35 | 193 | phospho-kinase substrates; also recorded: a stronger substrate than 1-PP-InsP5 | 71 | a stronger substrate than 1-PP-InsP5 | – | – |
| O=P(O)(O)CP(=O)(O)O[C@@H]1[C@H](OP(=O)(O)O)[C@H](OP(=O)(O)O)[C@@H](OP(=O)(O)O)[C@H](OP(=O)(O)O)[C@H]1OP(=O)(O)O [1-PCP-InsP5, myo-inositol 2,3,4,5,6-penta-phosphate-1-methylenediphosphonate] | 22 | 145 | better substrates | 61 | better substrates | potent inhibitors | – |
| O=C(O)CP(=O)(O)O[C@H]1[C@H](OP(=O)(O)O)[C@@H](OP(=O)(O)O)[C@@H](OP(=O)(O)O)[C@@H](OP(=O)(O)O)[C@@H]1OP(=O)(O)O [5-PA-InsP5, myo-inositol 1,2,3,4,6-penta-phosphate-5-phosphonoacetate] | 50 | 236 | strongest phospho-kinase substrate after myo-InsP6 | 44 | weak substrate | – | – |
| O=P(O)(O)CP(=O)(O)OC1C(OP(=O)(O)O)C(OP(=O)(O)O)C(OP(=O)(O)O)C(OP(=O)(O)CP(=O)(O)O)C1OP(=O)(O)O (stereo not shown) [1,5-[PCP]2-InsP4] | – | – | – | – | – | – | neither |
| O=P(O)(O)O[C@@H]1[C@H](OP(=O)(O)O)[C@H](OP(=O)(O)OP(=O)(O)O)[C@@H](OP(=O)(O)O)[C@H](OP(=O)(O)OP(=O)(O)O)[C@H]1OP(=O)(O)O [3,5-[PP]2-InsP4, 1D-3,5-bis-diphospho-myo-inositol 1,2,4,6-tetrakisphosphate] | – | – | – | – | – | – | both enantiomers are substrates |
| O=P(O)(O)O[C@@H]1[C@@H](OP(=O)(O)O)[C@H](OP(=O)(O)OP(=O)(O)O)[C@@H](OP(=O)(O)O)[C@H](OP(=O)(O)OP(=O)(O)O)[C@@H]1OP(=O)(O)O [1,5-[PP]2-InsP4, 1D-1,5-bis-diphospho-myo-inositol 2,3,4,6-tetrakisphosphate] | – | – | – | – | – | – | both enantiomers are substrates |
| O=P(O)(O)CP(=O)(O)OC1C(OP(=O)(O)O)C(OP(=O)(O)O)C(OP(=O)(O)O)C(OP(=O)(O)O)C1OP(=O)(O)O (stereo not shown) [3-PCP-InsP5, myo-inositol 1,2,4,5,6-penta-phosphate-3-methylenediphosphonate] | 41 | 232 | better substrates | 78 | better substrates | potent inhibitors | – |
